Earlier results, collected in US20170143622A1, “STABLE LIQUID READY-TO-USE INJECTABLE FORMULATION OF BORTEZOMIB” (DR. REDDY'S LABORATORIES LIMITED, priority 2014, published 2017).
Where two headings read alike, the source gives them in different places.

Assays:
[1] = ethanol composition, 40° C. and 75% relative humidity, 1 month
[2] = polyethylene glycol (PEG)
[3] = 25° C.

Bortezomib degraded to [1]: 76%
Solubility in PEG [2]: insolubility
Degradation ([3]; ethanol: normal saline solution (2:98, pH 2.8), bortezomib 0.5 mg/ml, 1 month): 20%
Degradation ([3]; polyethylene glycol (PEG) 300: Ethanol:Water (40:10:50), 24 hours): ≤ 20%
Degradation ([3]; propylene glycol (PG): Ethanol:Water (50:10:40), 8 months): 20%
Compound: CC(C)C[C@H](NC(=O)[C@H](Cc1ccccc1)NC(=O)c1cnccn1)B(O)O [bortezomib, [(1R)-3-methyl-1-[[(2S)-1-oxo-3-phenyl-2[(pyrazinylcarbonyl)amino]propyl]amino]butyl]boronic acid]
